Data on five cell lines can be found in the supplement of paper PMC10307832.

Test in all cases: relative viability (nuclei count vs DMSO), 5 days (fraction); higher = more cells survive
Compound in the test “Irinotecan + Trametinib”: CCc1c2c(nc3ccc(OC(=O)N4CCC(N5CCCCC5)CC4)cc13)-c1cc3c(c(=O)n1C2)COC(=O)[C@]3(O)CC [Irinotecan] + CC(=O)Nc1cccc(-n2c(=O)n(C3CC3)c(=O)c3c(Nc4ccc(I)cc4F)n(C)c(=O)c(C)c32)c1 [Trametinib] (partner 0.02 µM)
An outline of the steps: (§1)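 Lung cancer cell lines were seeded in 1536-well plates and dosed by pin tool the next day, with either a single drug or a fixed anchor-drug dose combined with five library-drug doses (not always all listed) spaced in √10 steps. Five days later, one step fixed the cells and stained their nuclei (final 0.05% Triton X-100, 1% formaldehyde, 1 ug/ml Hoechst), and nuclei were counted on 4× images. Relative viability is the nuclei count in treated wells divided by the count in vehicle wells, and each value is the median of duplicate plates.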

Compound in the test “RU-SKI 43 + Olaparib”: CC[C@@H](C)CNCC(=O)N1CCC2=C([C@@H]1COC3=CC=CC(=C3)C)C=CS2 [RU-SKI 43] + O=C(c1cc(Cc2n[nH]c(=O)c3ccccc23)ccc1F)N1CCN(C(=O)C2CC2)CC1 [Olaparib] (partner 8 µM)
Summed up:
as §1

Compound in the test “Irinotecan + Lapatinib”: CCc1c2c(nc3ccc(OC(=O)N4CCC(N5CCCCC5)CC4)cc13)-c1cc3c(c(=O)n1C2)COC(=O)[C@]3(O)CC [Irinotecan] + CS(=O)(=O)CCNCc1ccc(-c2ccc3ncnc(Nc4ccc(OCc5cccc(F)c5)c(Cl)c4)c3c2)o1 [Lapatinib] (partner 2 µM)
An outline of the steps:
as §1

Compound in the test “RU-SKI 43 + Alpelisib”: CC[C@@H](C)CNCC(=O)N1CCC2=C([C@@H]1COC3=CC=CC(=C3)C)C=CS2 [RU-SKI 43] + Cc1nc(NC(=O)N2CCC[C@H]2C(N)=O)sc1-c1ccnc(C(C)(C)C(F)(F)F)c1 [Alpelisib] (partner 2 µM)
Summed up: as §1

Take 201T: the relative viability with Irinotecan + Trametinib (first compound 0.6325 µM) stood at 0.771; in the test with Irinotecan + Trametinib (first compound 2 µM) it was 0.347; in the test with Irinotecan + Trametinib (first compound 6.325 µM) it was 0.255; in the test with Irinotecan + Trametinib (first compound 20 µM), 0.27; in the test with RU-SKI 43 + Olaparib (first compound 0.1 µM), 0.835; with RU-SKI 43 + Olaparib (first compound 0.3162 µM), 0.888. For the same cell line, the relative viability in the test with RU-SKI 43 + Olaparib (first compound 1 µM) amounted to 0.843; with RU-SKI 43 + Olaparib (first compound 3.162 µM), 0.858; with RU-SKI 43 + Olaparib (first compound 10 µM), 0.836; with Irinotecan + Lapatinib (first compound 2 µM), 1.03; in the test with Irinotecan + Lapatinib (first compound 6.325 µM), 0.738; with Irinotecan + Lapatinib (first compound 20 µM), 0.322. Also, the relative viability amounted to 1.08 in the test with RU-SKI 43 + Alpelisib (first compound 0.1 µM); 1.01 in the test with RU-SKI 43 + Alpelisib (first compound 0.3162 µM); 0.984 with RU-SKI 43 + Alpelisib (first compound 1 µM); 1.03 with RU-SKI 43 + Alpelisib (first compound 3.162 µM); 1.01 with RU-SKI 43 + Alpelisib (first compound 10 µM).
For the cell line A549, the relative viability in the test with RU-SKI 43 + Olaparib (first compound 0.1 µM) worked out at 0.362; with RU-SKI 43 + Olaparib (first compound 0.3162 µM), 0.462; in the test with RU-SKI 43 + Olaparib (first compound 1 µM) it was 0.277; with RU-SKI 43 + Olaparib (first compound 3.162 µM) it was 0.278; in the test with RU-SKI 43 + Olaparib (first compound 10 µM) it was 0.291; in the test with Irinotecan + Lapatinib (first compound 0.6325 µM), 0.723. Moreover, the relative viability is 0.529 in the test with Irinotecan + Lapatinib (first compound 2 µM); 0.112 in the test with Irinotecan + Lapatinib (first compound 6.325 µM); 0.0497 with Irinotecan + Lapatinib (first compound 20 µM); 0.991 with RU-SKI 43 + Alpelisib (first compound 0.1 µM); 0.957 in the test with RU-SKI 43 + Alpelisib (first compound 0.3162 µM); 0.738 in the test with RU-SKI 43 + Alpelisib (first compound 1 µM). Besides, the relative viability with RU-SKI 43 + Alpelisib (first compound 3.162 µM) is 0.772; with RU-SKI 43 + Alpelisib (first compound 10 µM), 0.621.
Turning to A-427, the relative viability with Irinotecan + Trametinib (first compound 0.6325 µM) turned out to be 0.719; in the test with Irinotecan + Trametinib (first compound 2 µM) it was 0.657; in the test with Irinotecan + Trametinib (first compound 6.325 µM), 0.365; in the test with Irinotecan + Trametinib (first compound 20 µM), 0.175; with RU-SKI 43 + Olaparib (first compound 0.1 µM) it was 0.707; in the test with RU-SKI 43 + Olaparib (first compound 0.3162 µM) it was 0.759. For the same cell line, the relative viability with RU-SKI 43 + Olaparib (first compound 1 µM) worked out at 0.68; with RU-SKI 43 + Olaparib (first compound 3.162 µM), 0.752; with RU-SKI 43 + Olaparib (first compound 10 µM), 0.626; in the test with Irinotecan + Lapatinib (first compound 2 µM), 0.752; in the test with Irinotecan + Lapatinib (first compound 6.325 µM) it was 0.221; with Irinotecan + Lapatinib (first compound 20 µM), 0.179. In addition, the relative viability with RU-SKI 43 + Alpelisib (first compound 0.1 µM) is 1.13; with RU-SKI 43 + Alpelisib (first compound 0.3162 µM) it was 1.16; with RU-SKI 43 + Alpelisib (first compound 1 µM), 1.18; with RU-SKI 43 + Alpelisib (first compound 10 µM), 1.02.
As to ABC-1, the relative viability in the test with RU-SKI 43 + Olaparib (first compound 0.1 µM) is 0.714; in the test with RU-SKI 43 + Olaparib (first compound 0.3162 µM), 0.786; with RU-SKI 43 + Olaparib (first compound 1 µM) it was 0.908; with RU-SKI 43 + Olaparib (first compound 3.162 µM), 0.926; in the test with RU-SKI 43 + Olaparib (first compound 10 µM), 0.705; in the test with Irinotecan + Lapatinib (first compound 0.6325 µM) it was 1.05. In addition, the relative viability with Irinotecan + Lapatinib (first compound 2 µM) was determined as 1.17; with Irinotecan + Lapatinib (first compound 6.325 µM), 0.646; in the test with Irinotecan + Lapatinib (first compound 20 µM), 0.574; in the test with RU-SKI 43 + Alpelisib (first compound 0.1 µM) it was 1.02; with RU-SKI 43 + Alpelisib (first compound 0.3162 µM), 1.13; with RU-SKI 43 + Alpelisib (first compound 1 µM) it was 0.895. Besides, the relative viability came out at 0.986 with RU-SKI 43 + Alpelisib (first compound 3.162 µM) and 1.06 in the test with RU-SKI 43 + Alpelisib (first compound 10 µM).
With BEN, the relative viability amounted to 1.2 with Irinotecan + Trametinib (first compound 0.6325 µM); 0.769 with Irinotecan + Trametinib (first compound 2 µM); 0.503 with Irinotecan + Trametinib (first compound 6.325 µM); 0.556 with Irinotecan + Trametinib (first compound 20 µM); 1.16 in the test with RU-SKI 43 + Olaparib (first compound 0.1 µM); 1.2 in the test with RU-SKI 43 + Olaparib (first compound 0.3162 µM). Also, the relative viability with RU-SKI 43 + Olaparib (first compound 1 µM) is 1.09; in the test with RU-SKI 43 + Olaparib (first compound 3.162 µM), 1.09; in the test with RU-SKI 43 + Olaparib (first compound 10 µM) it was 1.07; in the test with Irinotecan + Lapatinib (first compound 0.6325 µM), 0.542; with Irinotecan + Lapatinib (first compound 2 µM), 0.418; with Irinotecan + Lapatinib (first compound 6.325 µM), 0.244. Moreover, the relative viability in the test with Irinotecan + Lapatinib (first compound 20 µM) came to 0.338; with RU-SKI 43 + Alpelisib (first compound 0.1 µM) it was 1.04; in the test with RU-SKI 43 + Alpelisib (first compound 0.3162 µM), 1.13; with RU-SKI 43 + Alpelisib (first compound 1 µM), 1.07; with RU-SKI 43 + Alpelisib (first compound 3.162 µM), 1.06; with RU-SKI 43 + Alpelisib (first compound 10 µM), 1.
